Reference: ChEMBL document CHEMBL6182916, “Unexpected Discovery of a Novel Triphenylphosphonium Alkylalcohol That Triggers Cancer Cell Death via Mitophagy and Ferroptosis” (J Med Chem, 2025)
Calls of active or inactive are those of the source. The calls are words filed in the database; no cut-off is given here.

Experiments:
[1] = Drug metabolism in human HCC827 cells mitochondria assessed as 2-(2-(4-hydroxystyryl)-4H-chromen-4-ylidene)malononitrile hydrolysis at 10 uM incubated for 5 mins by fluorescence emission spectroscopy analysis; type: ADME; conditions: hcc827, 5 min
[2] = Drug localization in mitochondria of human HCC827 cells assessed as increase in green fluorescence by measuring pearson correlation coefficient at 10 uM incubated for 10 mins by mito-tracker green dye based confocal scanning microscopy analysis; type: ADME; conditions: hcc827, 10 min
[3] = Drug uptake in human HCC827 cells mitochondria assessed as increase in fluorescence intensity at 10 uM by fluorescence emission spectroscopy analysis; type: ADME; conditions: hcc827, 10 µM
[4] = Drug accumulation in mitochondria of human HCC827 cells at 10 uM incubated for 10 mins in presence of CCCP by RP-HPLC-UV analysis; type: ADME; conditions: hcc827, 10 min
[5] = test system: A-375; experiment: Antiproliferative activity against human A-375 cells assessed as inhibition of cell growth measured after 72 hrs by MTT assay; type: functional, cell-based; conditions: A-375, 72 h
[6] = Drug accumulation in mitochondria of human HCC827 cells at 10 uM incubated for 5 mins; type: ADME; conditions: hcc827, 5 min
[7] = Antiproliferative activity against human Osimertinib-resistant HCC827 cell assessed as inhibition of cell growth measured after 72 hrs by MTT assay; type: functional, cell-based
[8] = test system: A-375; experiment: Anticancer activity against human A-375 cells assessed as inhibition of cell growth by MTT assay; type: functional, cell-based
[9] = test system: HCC827; experiment: Induction of apoptosis in human HCC827 cells assessed as late apoptotic cells at 1 uM measured after 48 hrs by annexin V and PI staining based flow cytometry analysis (reference value: 1.29%); type: functional
[10] = test system: HCC827; experiment: Induction of ROS generation in human HCC827 cells assessed as increase in NAD+/NADH ratio at 1 uM incubated for 4 hrs by absorbance based analysis; type: functional, cell-based
[11] = test system: MDA-MB-231; experiment: Antiproliferative activity against human MDA-MB-231 cells assessed as inhibition of cell growth measured after 72 hrs by MTT assay; type: functional, cell-based; conditions: MDA-MB-231, 72 h
[12] = test system: HCC827; experiment: Induction of apoptosis in human HCC827 cells assessed as necrotic cells at 1 uM measured after 48 hrs by annexin V and PI staining based flow cytometry analysis (reference value: 1.18%); type: functional
[13] = test system: Mitochondrial membrane; experiment: Induction of mitochondrial membrane depolarization in human HCC827 cells assessed as increase in J-monomer ratio at 0.5 uM incubated for 4 hrs by JC-1 staining based flow cytometric analysis; type: cell membranes
[14] = test system: HCC827; experiment: Antiproliferative activity against human HCC827 cells assessed as inhibition of cell growth measured after 72 hrs by MTT assay; type: functional, cell-based; conditions: HCC827, 72 h
[15] = test system: HCC827; experiment: Induction of cell cycle arrest in human HCC827 cells assessed as accumulation of cells at G2 phase at 0.4 uM incubated for 24 hrs by PI staining based flow cytometry analysis (reference value: 7.15%); type: functional
[16] = test system: NCI-H460; experiment: Antiproliferative activity against human NCI-H460 cells assessed as inhibition of cell growth measured after 72 hrs by MTT assay; type: functional, cell-based; conditions: NCI-H460, 72 h
[17] = Antiproliferative activity against human HUVEC cells assessed as inhibition of cell growth measured after 72 hrs by MTT assay; type: toxicity, cell-based
[18] = Antiproliferative activity against HEK293T cells assessed as inhibition of cell growth measured after 72 hrs by MTT assay; type: toxicity, cell-based, HEK-293T; conditions: human
[19] = Antiproliferative activity against human BEAS-2B cells assessed as inhibition of cell growth measured after 72 hrs by MTT assay; type: toxicity, cell-based
[20] = test system: NCI-H1650; experiment: Antiproliferative activity against human NCI-H1650 cells assessed as inhibition of cell growth measured after 72 hrs by MTT assay; type: functional, cell-based; conditions: NCI-H1650, 72 h
[21] = test system: HCC827; experiment: Induction of ROS generation in human HCC827 cells assessed as decrease in NADH content at 1 uM incubated for 4 hrs by absorbance based analysis; type: functional, cell-based
[22] = test system: HCC827; experiment: Induction of mitochondrial dysfunction in human HCC827 cells assessed as cytochrome C release in cytoplasm at 1 uM measured after 72 hrs by laser scanning confocal fluorescence microscopic analysis; type: functional, cell-based
[23] = Antiproliferative activity against human LO2 cells assessed as inhibition of cell growth measured after 72 hrs by MTT assay; type: toxicity, cell-based, L02
[24] = test system: MCF7; experiment: Antiproliferative activity against human MCF7 cells assessed as inhibition of cell growth measured after 72 hrs by MTT assay; type: functional, cell-based; conditions: MCF7, 72 h
[25] = test system: SK-LU-1; experiment: Antiproliferative activity against human SK-LU-1 cells assessed as inhibition of cell growth measured after 72 hrs by MTT assay; type: functional, cell-based; conditions: SK-LU-1, 72 h
[26] = test system: NCI-H1975; experiment: Antiproliferative activity against human NCI-H1975 cells assessed as inhibition of cell growth measured after 72 hrs by MTT assay; type: functional, cell-based; conditions: NCI-H1975, 72 h
[27] = test system: HCC827; experiment: Induction of apoptosis in human HCC827 cells assessed as viable cells at 1.0 uM measured after 48 hrs by annexin V and PI staining based flow cytometry analysis (reference value: 96.74%); type: functional; conditions: read-out: Activity
[28] = test system: Osimertinib-resistant NCI-H1975 cell; experiment: Antiproliferative activity against human Osimertinib-resistant NCI-H1975 cell assessed as inhibition of cell growth measured after 72 hrs by MTT assay; type: functional, cell-based
[29] = test system: NCI-H1299; experiment: Antiproliferative activity against human NCI-H1299 cells assessed as inhibition of cell growth measured after 72 hrs by MTT assay; type: functional, cell-based; conditions: NCI-H1299, 72 h
[30] = test system: HCC827; experiment: Induction of apoptosis in human HCC827 cells assessed as early apoptotic cells at 1 uM measured after 48 hrs by annexin V and PI staining based flow cytometry analysis (reference value: 0.70%); type: functional
[31] = test system: HCT-116; experiment: Antiproliferative activity against human HCT-116 cells assessed as inhibition of cell growth measured after 72 hrs by MTT assay; type: functional, cell-based; conditions: HCT-116, 72 h
[32] = test system: HCC827; experiment: Induction of cell cycle arrest in human HCC827 cells assessed as accumulation of cells at S phase at 0.4 uM incubated for 24 hrs by PI staining based flow cytometry analysis (reference value: 26.41%); type: functional
[33] = test system: A549; experiment: Antiproliferative activity against human A549 cells assessed as inhibition of cell growth measured after 72 hrs by MTT assay; type: functional, cell-based; conditions: A549, 72 h
[34] = test system: HCC827; experiment: Induction of cell cycle arrest in human HCC827 cells assessed as accumulation of cells at G1 phase at 0.4 uM incubated for 24 hrs by PI staining based flow cytometry analysis (reference value: 66.44%); type: functional
[35] = test system: HCC827; experiment: Inhibition of colony formation in human HCC827 cells at 0.2 uM incubated for 72 hrs by crystal violet staining based analysis; type: functional, cell-based
[36] = test system: HeLa; experiment: Induction of mitophagy in human HeLa cells assessed as colocalization of mitochondria and lysosomes at 40 uM by lysotracker red staining based confocal microscopy analysis; type: functional, cell-based
[37] = test system: HeLa; experiment: Induction of mitophagy in human HeLa cells harbouring mCherry-GFP tag assessed as reduction in GFP fluorescence at 40 uM incubated for 24 hrs by confocal microscopy analysis; type: functional, cell-based
[38] = test system: HeLa; experiment: Induction of mitophagy in human HeLa cells harbouring mCherry-GFP tag assessed as visible mCherry fluorescence at 40 uM incubated for 24 hrs by confocal microscopy analysis; type: functional, cell-based
[39] = test system: HeLa; experiment: Induction of mitophagy in human HeLa cells assessed as colocalization of mitochondria and lysosomes at 40 uM by mitoGFP staining based confocal microscopy analysis; type: functional, cell-based

Cc1ccc([P+](CCCCCCCCCCOC(=O)Oc2ccc(/C=C/C3=CC(=C(C#N)C#N)c4ccccc4O3)cc2)(c2ccc(C)cc2)c2ccc(C)cc2)cc1.[Br-]
Drug metabolism [1]: metabolite_detected
Drug uptake [2]: 0.84
Drug uptake [3]: Active

OCCCCCCCCCC[P+](c1ccccc1)(c1ccccc1)c1ccccc1.[Br-]
Drug uptake [4]: Not_active
IC50 [5]: 410 nM
Drug uptake [6]: ~ 90%
IC50 [7]: 340 nM
IC50 [8]: 410 nM
Activity [9]: 4.02%
Activity [10]: Active
IC50 [11]: 550 nM
Activity [12]: 0.7%
Activity [13]: inactive
IC50 [14]: 230 nM
Activity [15]: 6%
IC50 [16]: 950 nM
IC50 at 72 h [17]: 2380 nM
IC50 at 72 h [18]: 2790 nM
IC50 at 72 h [19]: 1140 nM
IC50 [20]: 710 nM
Activity [21]: Active
Activity [22]: inactive
IC50 at 72 h [23]: 3120 nM
IC50 [24]: 310 nM
IC50 [25]: 540 nM
IC50 [26]: 320 nM
viability at 1 µM [27]: 94.1%
IC50 [28]: 570 nM
IC50 [29]: > 5000 nM
Activity [30]: 2.5%
IC50 [31]: 940 nM
Activity [32]: 19.19%
IC50 [33]: 1070 nM
Activity [34]: 74.82%
inhibition [35]: Weak_effect

O=C(CCCCC(CCSCc1ccccc1)SCc1ccccc1)OCCCCC[P+](c1ccccc1)(c1ccccc1)c1ccccc1 (configuration not stated)
IC50 [8]: 4150 nM

N#CC(C#N)=NNc1cccc(Cl)c1
Activity [36]: Active
Activity [37]: Active
Activity [38]: Active
Activity [39]: Active

O=C(O)CCCCC(CCSCc1ccccc1)SCc1ccccc1 (configuration not stated) [CPI 613]
IC50 [8]: > 100000 nM

OCCCCC[P+](c1ccccc1)(c1ccccc1)c1ccccc1
IC50 [8]: > 40000 nM
